# Test system: Mycobacterium smegmatis
# Test: In vitro Mycobacterium smegmatis growth inhibition assay (suspension turbidity)
# Type: cell-based
# Conditions: for Inhibitory activity against Mycobacterium smegmatis growth, in words, compared with RMP: versus active control RMP; for IC50: Mycolicibacterium smegmatis, four parameter curve fit of the 96 hours growth data, read-out: IC50 (concentration to inhibit 50% of the Mycobacterium smegmatis growth)
Molecule,"Inhibitory activity against Mycobacterium smegmatis growth, in words, compared with RMP",IC50 [µM],% of Celular Growth at 96 hours (concentration 1.23 uM) [%],% of Celular Growth at 96 hours (concentration 3.70 uM) [%],% of Celular Growth at 96 hours (concentration 11.11 uM) [%],% of Celular Growth at 96 hours (concentration 33.33 uM) [%],% of Celular Growth at 96 hours (concentration 100.00 uM) [%]
"3,5-dibromo-2-hydroxybenzaldehyde (2-pyridinyl)hydrazine [Compound no. 42]",superior inhibitory activity,,,,,,
"Cc1cc(NN=Cc2ccccc2O)nc2ccccc12 [Compound no. 77, 2-hydroxybenzaldehyde-(4-methyl-2-quinolinyl)hydrazone]",better IC50 values than RMP,6.59,77.17,57.42,29.14,22.41,34.09
"Oc1ccc(Br)cc1C=NNc1ccc2ccccc2n1 [Compound no. 76, 5-bromo-2-hydroxybenzaldehyde 2-quinolinylhydrazone]",better IC50 values than RMP,16.2,118.35,113.44,121.72,43.92,51.50
